Literature values, collected in patent US6538179B1, “Enhanced starch biosynthesis in seeds” (Monsanto Technology LLC, priority 1990, dated 2003).

Biological target: plant ADPGPP (Solanum tuberosum, UniProt P23509+Q00081)
Sequence (Q00081 whole entry): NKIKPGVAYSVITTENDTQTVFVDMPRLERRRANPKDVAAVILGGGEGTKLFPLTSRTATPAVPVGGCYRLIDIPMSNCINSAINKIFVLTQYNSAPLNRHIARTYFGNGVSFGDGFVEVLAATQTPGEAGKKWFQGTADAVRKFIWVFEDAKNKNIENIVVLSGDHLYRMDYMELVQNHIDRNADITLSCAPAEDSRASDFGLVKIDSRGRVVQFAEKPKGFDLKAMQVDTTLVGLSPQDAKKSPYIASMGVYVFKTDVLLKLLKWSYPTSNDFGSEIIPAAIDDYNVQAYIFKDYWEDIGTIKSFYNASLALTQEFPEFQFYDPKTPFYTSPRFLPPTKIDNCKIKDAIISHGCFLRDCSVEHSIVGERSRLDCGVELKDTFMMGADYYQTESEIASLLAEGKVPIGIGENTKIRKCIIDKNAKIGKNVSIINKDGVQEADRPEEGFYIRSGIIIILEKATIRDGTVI
Sequence (P23509 73-521): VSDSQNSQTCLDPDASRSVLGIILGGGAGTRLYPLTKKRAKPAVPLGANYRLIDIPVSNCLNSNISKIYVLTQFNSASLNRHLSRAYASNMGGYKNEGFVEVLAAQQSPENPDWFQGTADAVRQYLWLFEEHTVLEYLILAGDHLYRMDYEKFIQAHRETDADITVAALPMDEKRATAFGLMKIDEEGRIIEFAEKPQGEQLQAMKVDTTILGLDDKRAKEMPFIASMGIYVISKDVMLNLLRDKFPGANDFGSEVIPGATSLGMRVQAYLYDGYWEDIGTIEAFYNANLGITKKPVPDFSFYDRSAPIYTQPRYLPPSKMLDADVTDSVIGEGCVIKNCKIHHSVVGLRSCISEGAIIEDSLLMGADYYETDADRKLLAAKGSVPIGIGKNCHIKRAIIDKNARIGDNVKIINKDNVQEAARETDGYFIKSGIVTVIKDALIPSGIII

O=P(O)(O)O [Pi, inorganic phosphate]
IC50 (read-out: I0.5, inhibition of ADPGPP by Pi): 45 µM

O=C(O)[C@H](O)COP(=O)(O)O [3-PGA, 3-phosphoglycerate]
EC50 (activation of ADPGPP by 3-PGA, read-out: A0.5): 75 µM
